{"source": "patent US7786297B2", "about": "“Purified form of tanaproget” (Wyeth LLC, priority 2005, dated 2010)", "experiment": "storage stability of purified tanaproget Form I (polymorph conversion)", "assay_type": "physicochemical", "settings": "storage of purified tanaproget Form I alone or in combination with other agents/excipients"}
{"smiles": "Cn1c(C#N)ccc1-c1ccc2c(c1)C(C)(C)OC(=S)N2", "note": "[purified tanaproget Form I, 5-(4,4-dimethyl-2-thioxo-1,4-dihydro-2H-3,1-benzoxazin-6-yl)-1-methyl-1H-pyrrole-2-carbonitrile]", "values": [{"measurement": "stability / conversion to another polymorph during storage", "value": "stable and less likely to convert to another polymorph during storage"}]}
